Data on 21 molecules can be found in patent US12084421B2, “Quinoline-based proteasome inhibitors and uses thereof” (Board of Trustees of Michigan State University, priority 2017, dated 2024).

In data set [1] the target is purified human 20S proteasome (CT-L activity) (Homo sapiens, UniProt P28074). Kind of data set: Proteasomal CT-L activity measurement with Suc-LLVY-AMC. It counts as biochemical. The settings on record: for IC50: Suc-LLVY-AMC substrate, 37° C., 30 min. On the procedure:
(§1) Proteasomal activity measurement: The fluorogenic substrates Suc-LLVY-AMC, Z-ARR-AMC, and Z-LLE-AMC were used to measure CT-L, T-L and casp-L proteasome activities, respectively. Assays were carried out in black, clear bottom 96 well plates in a 200 μL reaction volume containing 1 nM of purified human 20S proteasome in 50 mM Tris-HCL pH 7.5 and 0.03% SDS containing 50 IM fluorogenic substrate at 37° C. The rate of cleavage of fluorogenic peptide substrates was determined by monitoring the fluorescence of released aminomethylcoumarin using a SpectraMax M5e multiwall plate reader at an excitation wavelength of 380 nm and emission wavelength of 460 nm. Fluo-rescence was measured every minute over a period of 30 minutes and the maximum increase in fluorescence per minute was used to calculate specific activities of each sample.
Compounds were screened in vitro using purified human 20S proteasome and the fluorogenic peptide substrate, Suc-LLVY-AMC, as the substrate for CT-L activity as described herein.
The mechanism by which quinoline 7 inhibits the proteasome was investigated using Michaelis-Menton analysis to determine of KM and Vmax and then further illustrated using a Lineweaver-Burk double reciprocal plot of the kinetic data. Kinetic analysis of CT-L activity of purified 20S particles indicate that when the substrate (Suc-LLVY-AMC) concentration was increased incrementally and measurements were taken at five different concentrations of compound 7 or vehicle, the Vmax of the CT-L activity decreases and the KM increases, with the increasing concentration of […].

A further data set in a line: Kinetic solubility assay. Type of data set: physicochemical. The settings on record: phosphate buffered saline with 1% DMSO, aqueous buffer, kinetic from dmso stock; estimated kinetic solubility, phosphate buffered saline pH 7.4, 1% DMSO, 2 hours at 37° C., absorbance 620 nm. On the procedure:
Seven three-fold dilutions from 300 μM were prepared in phosphate buffered saline (ph=7.4) and 1% DMSO. Each concentration for each compound was tested three times (n=3). The compounds were incubated for 2 hours at 37° C. and the absorbance at 620 nm was evaluated for each dilution.

Data set [2] is described as follows: Microsome (S9 fraction) stability assay. Type of data set: in vitro ADME. The settings on record: mouse S9 fraction 0.25 mg/mL, 3 μM compound, NADPH, LC-MS/MS.
Data set [3] has as its target purified human 20S proteasome (casp-L activity) (Homo sapiens, UniProt P28072). Kind of data set: Proteasomal casp-L activity measurement with Z-LLE-AMC. Type of data set: biochemical. The note with it: Z-LLE-AMC substrate. On the procedure: as §1
Quinoline 7 was subsequently evaluated for its inhibition of the proteasome's tryptic (b2)-like and caspase (b1)-like activity in vitro using purified human 20S proteasome and the following fluorogenic peptide as substrates: Boc-LRR-AMC (substrate for T-L activity) and Z-LLE-AMC (substrate for casp-L activity).

A further data set relates to HeLa NF-κB-luc cells. The data set can be described thus: NF-κB-luc reporter assay, TNF-α stimulated. Type of data set: cell-based. The settings on record: Homo sapiens, 30 min pretreatment, TNF-α 25 ng/mL, 8 h, Steady-Glo luciferase, read-out: IC50, NF-κB mediated gene transcription. Here is the method:
NF-κB-luc reporter assay: HeLa NF-κB-luc cells (5.0×10^5 cells/mL) were seeded into a 96-well white opaque plate using DMEM medium supplemented with 5% fetal bovine serum, 500 U/mL penicillin, 100 μg/mL streptomycin, 1 mM sodium pyruvate, 0.2 mM L-glutamine, and 100 Ig/mL hygromycin B. After 24 h the cell culture medium was replaced with DMEM medium supplemented with 100 U/mL penicillin and 100 Ig/mL streptomycin. Cell cultures were pretreated with vehicle (1% DMSO), 50 IMpeptide aldehyde MG-132 (positive control) or quinoline (final concentrations were 50, 25, 12.5, 6.25, 3.13 and 1.56 IM) for 30 min at 37° C. in 5% CO2. TNF-α was added to a final concentration of 25 ng/mL and the samples were further incubated for 8 h at 37° C. in 5% CO2. […] The luminescence of each well was measured using a Veritas microplate luminometer. […] The data was analyzed using GraphPad Prism 4.0. The data was normalized to TNF-α activation and the EC50 values were calculated using the equation for the sigmodial curve for variable slope.
In order to evaluate whether the inhibition of proteasome activity translated in cell culture, we evaluated compound 7 for inhibition of NE-KB regulation. […] In order to determine if quinoline 7 affects NE-KB mediated gene transcription, we evaluated quinoline 7 in HeLa NE-KB-luc cells. […]
In general terms: In a reporter assay the amount or activity of a reporter protein is the signal.

≈ marks a conversion by molar mass, not a printed value.

The molecule `Cc1cc(C)c2cc(C3CCCCC3)c(C)nc2c1` [Compound 11] returned an IC50 in data set [1] of 8.2 µM. Moreover, in the data set “Kinetic solubility assay”, the solubility at 2 h was 129 µM (≈ 32.6 µg/mL). The “Compound remaining after 30 min in mouse S9” value (from here on “Compound remaining”) in data set [2] is recorded as 100%. Molecule `Cc1ccc2nc(C)c(-c3ccccc3)cc2c1` [Compound 5, 2,6-Dimethyl-3-phenylquinoline] came in with an IC50 in data set [1] of 19.2 µM. Same read-out and setting: as for `Cc1nc2ccc(N(C)C)cc2cc1C1=CCCCC1` [Compound 22, 3-Cyclohexenyl-2-methyl-6-(N,N-dimethylamino) quinoline], the figure is 6.1 µM.

In data set [1], `Cc1nc2ccc(Br)cc2cc1C1=CCCCC1` [Compound 16, 6-Bromo-3-cyclohexenyl-2-methylquinoline] displayed an IC50 of 9.9 µM. The same measure, in the same setting: as for `CN(C)c1ccc2ncc(C3=CCCCC3)cc2c1` [Compound 21, 3-Cyclohexenyl-6-(N,N-dimethylamino)quinoline], the figure is 6.3 µM.

In the case of `Cc1cc(C)c2cc(C3=CCCCC3)c(C)nc2c1` [Compound 7, 3-cyclohexenyl-2,5,7-trimethylquinoline], the IC50 turned out to be 14.4 µM in data set [1], 17.7 µM in data set [3] and 12.1 µM in the data set on HeLa NF-κB-luc cells. The “Mechanism of inhibition (Michaelis-Menton / Lineweaver-Burk analysis)” value in data set [1] (Suc-LLVY-AMC varied, five concentrations of compound, Vmax decreases, KM increases) is recorded as “mixed-type inhibition”. The solubility at 2 h in “Kinetic solubility assay” is 38.1 µM (≈ 9.58 µg/mL). Besides, the “Compound remaining” value in data set [2] is reported as 18%. As for `CCCCc1ccc2nc(C)c(C3=CCCCC3)cc2c1` [Compound 20, 6-Butyl-3-cyclohexenyl-2-methylquinoline], the IC50 in data set [1] was found to be 7.6 µM. For the same molecule, in “Kinetic solubility assay”, the solubility at 2 h was 14.5 µM (≈ 4.05 µg/mL). Further, the “Compound remaining” value in data set [2] was determined as 12%.

In turn, `CCc1nc2cc(C)cc(C)c2cc1C1=CCCCC1` [Compound 8, 2-Ethyl-3-cyclohexenyl-5,7-dimethylquinoline] yielded an IC50 in data set [1] of 19.9 µM. Same read-out and setting: the figure for `Cc1ccc2nc(C)c(C3=CCCCC3)cc2c1` [Compound 19, 3-Cyclohexenyl-2,6-dimethylquinoline] is 8.5 µM. In turn, `Cc1nc2ccc(N(C)C)cc2cc1-c1ccccc1` [Compound 34, 2-methyl-3-phenyl-6-(N,N-dimethylamino) quinoline] gave an IC50 in data set [1] of 10 µM. Moreover, the solubility at 2 h in “Kinetic solubility assay” is 121 µM (≈ 31.9 µg/mL). Further, the “Compound remaining” value in data set [2] is listed as more than 100%. On to `Cc1nc2ccc(N3CCCCC3)cc2cc1C1=CCCCC1` [Compound 25, 3-Cyclohexenyl-2-methyl-6-piperidinylquinoline], for which the IC50 in data set [1] amounted to 5.4 µM. As for `Cc1cc(C)c2cc(-c3ccccc3)cnc2c1` [Compound 4, 5,7-Dimethyl-3-phenylquinoline], in data set [1], half-maximal inhibition (IC50) required 23.6 µM. Still for that read-out and setting: the figure for `CCc1cc2cc(N(C)C)ccc2nc1CC` [Compound 33, 2,3-Diethyl-N,N-dimethylquinoline] is 18.7 µM; for `Cc1cc(C)c2cc(-c3ccccc3)c(C)nc2c1` [Compound 6, 2,5,7-trimethyl-3-phenylquinoline] it is 15.3 µM. `Cc1nc2ccc(C(C)C)cc2cc1C1=CCCCC1` [Compound 30, 3-Cyclohexenyl-6-isopropyl-2-methylquinoline] displayed an IC50 in data set [1] of 7.8 µM. In addition, in the data set “Kinetic solubility assay”, the solubility at 2 h was 11.7 µM (≈ 3.11 µg/mL). For the same molecule, the “Compound remaining” value in data set [2] worked out at 6%. `Cc1cc(C)c2cc(C3=CCCCC3)cnc2c1` [Compound 9, 3-Cyclohexenyl-5,7-dimethylquinoline] yielded an IC50 in data set [1] of 13.8 µM. Consider `CCCCc1ccc2nc(C)c(-c3ccccc3)cc2c1` [Compound 36, 6-Butyl-2-methyl-3-phenylquinoline], for which the midpoint of inhibition in data set [1], the IC50, lay at 21.6 µM.

Regarding `CN(C)c1ccc2ncc(C3CCCCC3)cc2c1` [Compound 28, 3-Cyclohexyl-6-(N,N-dimethylamino)quinoline], the IC50 in data set [1] came out at 5.5 µM. In data set [1], `Cc1nc2ccc(N(C)C)cc2cc1C1CCCCC1` [Compound 29, 3-Cyclohexyl-2-methyl-6-(N,N-dimethylamino) quinoline] displayed an IC50 of 6.7 µM. In addition, the solubility at 2 h in the data set “Kinetic solubility assay” was 138 µM (≈ 37.1 µg/mL). Besides, in data set [2], the “Compound remaining” value came to 4%. `COc1cc2nc(C)c(C3=CCCCC3)cc2c(OC)c1OC` [Compound 27, 3-Cyclohexenyl-5,6,7-trimethoxy-2-methylquinoline] gave an IC50 in data set [1] of 15.6 µM. `CCc1nc2ccc(N(C)C)cc2cc1C1=CCCCC1` [Compound 23, 3-Cyclohexenyl-2-ethyl-6(N,N-dimethylamino)quinoline] yielded an IC50 in data set [1] of 5.6 µM. In “Kinetic solubility assay”, the solubility at 2 h is 27.4 µM (≈ 7.68 µg/mL). Also, the “Compound remaining” value in data set [2] came out at 5%.

A word on the IC50: it is the concentration at which inhibition is half-maximal. One may read the solubility as the dissolved amount per volume that the medium holds.
